Measurements taken from US20170000133A1, “BENZOXABOROLE FUNGICIDES” (SYNGENTA PARTICIPATIONS AG, priority 2013, published 2017).

Key:
Pythium ultimum = Pythium ultimum / liquid culture (seedling damping off); type: cell-based; conditions: Globisporangium ultimum; 200 ppm; potato dextrose broth, 24° C., 2-3 days after application; read-out: disease control (inhibition of growth determined photometrically)
[1] = system: Glomerella lagenarium (Colletotrichum lagenarium); test: Glomerella lagenarium (Colletotrichum lagenarium) / liquid culture (anthracnose); type: cell-based; conditions: Colletotrichum orbiculare, PDB potato dextrose broth, 24° C., 3-4 days after application, read-out: disease control (inhibition of growth measured photometrically)
Experimental: (§1) 11. Glomerella lagenarium (Colletotrichum lagenarium)/Liquid Culture (Anthracnose): Conidia of the fungus from cryogenic storage were directly mixed into nutrient broth (PDB potato dextrose broth). After placing a DMSO solution of test compound into a 96-well microtiter plate at an application rate of 200 ppm, the nutrient broth containing the fungal spores was added. The test plates were incubated at 24° C. and the inhibition of growth was measured photometrically 3-4 days after application.

[2] = system: Mycosphaerella arachidis (Cercospora arachidicola); test: Mycosphaerella arachidis (Cercospora arachidicola) / liquid culture (early leaf spot); type: cell-based; conditions: PDB potato dextrose broth, 24° C., 4-5 days after application, read-out: disease control (inhibition of growth determined photometrically)
Experimental: as §1, with “12. Mycosphaerella arachidis (Cercospora arachidicola)/Liquid” for “11. Glomerella lagenarium (Colletotrichum lagenarium)/Liquid”, “(Early Leaf Spot):” for “(Anthracnose):”, “determined” for “measured”, “4-5” for “3-4”

[3] = system: Mycosphaerella graminicola (Septoria tritici); test: Mycosphaerella graminicola (Septoria tritici) / liquid culture (Septoria blotch); type: cell-based; conditions: Zymoseptoria tritici, PDB potato dextrose broth, 24° C., 4-5 days after application, read-out: disease control (inhibition of growth determined photometrically)
Procedure, shortened: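 Conidia from cryostorage were suspended in potato dextrose broth and added to test compound in DMSO at 200 ppm in microtiter wells. Plates were incubated at 24° C and growth inhibition measured photometrically 4-5 days after application.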

[4] = system: Monographella nivalis (Microdochium nivale); test: Monographella nivalis (Microdochium nivale) / liquid culture (foot rot cereals); type: cell-based; conditions: PDB potato dextrose broth, 24° C., 4-5 days after application, read-out: disease control (inhibition of growth determined photometrically)
Fusarium culmorum = test: microbe, parasite or virus in culture; type: cell-based; conditions: read-out: disease control (inhibition of growth determined visually)
[5] = system: Thanatephorus cucumeris (Rhizoctonia solani); test: Thanatephorus cucumeris (Rhizoctonia solani) / liquid culture (foot rot, damping-off); type: cell-based; conditions: PDB potato dextrose broth, 24° C., 3-4 days after application, read-out: disease control (inhibition of growth determined photometrically)
Procedure, shortened: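 Mycelial fragments from fresh liquid culture were suspended in potato dextrose broth and added to compound in DMSO at 200 ppm. After 3-4 days at 24 °C, growth inhibition was measured photometrically.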

Gaeumannomyces graminis = Gaeumannomyces graminis / liquid culture (take-all of cereals); type: cell-based; conditions: PDB potato dextrose broth, 24° C., 4-5 days after application, read-out: disease control (inhibition of growth determined photometrically)
Procedure, shortened: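 Cryo-stored mycelial fragments in potato dextrose broth exposed to compound in DMSO at 200 ppm. Incubated at 24 °C; growth inhibition read photometrically 4–5 days after application.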

Plasmopara viticola = test: whole plant or invertebrate; type: in vivo; conditions: foliar, read-out: disease control

O=C(OCC(Cl)(Cl)Cl)c1cc2c(cc1Cl)COB2O [Compound 197]
≥ 80%: inhibition at 200 ppm (Pythium ultimum) | inhibition at 200 ppm [1] | inhibition at 200 ppm [2] | inhibition at 200 ppm [3] | inhibition at 200 ppm [4] | inhibition at 200 ppm (Fusarium culmorum) | inhibition at 200 ppm [5]

C=CCCOC(=O)c1cc2c(cc1Cl)COB2O [Compound 203]
≥ 80%: inhibition at 200 ppm (Pythium ultimum) | inhibition at 200 ppm [1] | inhibition at 200 ppm [2] | inhibition at 200 ppm [3] | inhibition at 200 ppm (Gaeumannomyces graminis) | inhibition at 200 ppm [4] | inhibition at 200 ppm (Fusarium culmorum) | inhibition at 200 ppm [5]

O=C(OC1CCC1)c1cc2c(cc1Cl)COB2O [Compound 205]
≥ 80%: inhibition at 200 ppm (Pythium ultimum) | inhibition at 200 ppm [1] | inhibition at 200 ppm [2] | inhibition at 200 ppm [3] | inhibition at 200 ppm (Gaeumannomyces graminis) | inhibition at 200 ppm [4] | inhibition at 200 ppm (Fusarium culmorum) | inhibition at 200 ppm [5]

O=C(OCCOc1ccc(Cl)cc1)c1cc2c(cc1Cl)COB2O [Compound 226]
≥ 80%: pest or weed control at 200 ppm (Plasmopara viticola) | inhibition at 200 ppm (Pythium ultimum) | inhibition at 200 ppm [1] | inhibition at 200 ppm [2] | inhibition at 200 ppm [3] | inhibition at 200 ppm (Gaeumannomyces graminis) | inhibition at 200 ppm [4] | inhibition at 200 ppm (Fusarium culmorum) | inhibition at 200 ppm [5]

C#CCCOC(=O)c1cc2c(cc1Cl)COB2O [Compound 229]
≥ 80%: inhibition at 200 ppm (Pythium ultimum) | inhibition at 200 ppm [1] | inhibition at 200 ppm [2] | inhibition at 200 ppm [3] | inhibition at 200 ppm (Gaeumannomyces graminis) | inhibition at 200 ppm [4] | inhibition at 200 ppm (Fusarium culmorum) | inhibition at 200 ppm [5]

O=C(OCCc1c(Cl)cccc1Cl)c1cc2c(cc1Cl)COB2O [Compound 240]
≥ 80%: pest or weed control at 200 ppm (Plasmopara viticola) | inhibition at 200 ppm (Pythium ultimum) | inhibition at 200 ppm [1] | inhibition at 200 ppm [2] | inhibition at 200 ppm [3] | inhibition at 200 ppm (Gaeumannomyces graminis) | inhibition at 200 ppm [4] | inhibition at 200 ppm [5]

O=C(OCC(F)(F)Cl)c1ccc2c(c1)B(O)OC2 [Compound 314]
≥ 80%: pest or weed control at 200 ppm (Plasmopara viticola) | inhibition at 200 ppm (Pythium ultimum) | inhibition at 200 ppm [1] | inhibition at 200 ppm [2] | inhibition at 200 ppm [3] | inhibition at 200 ppm (Gaeumannomyces graminis) | inhibition at 200 ppm [4] | inhibition at 200 ppm [5]

C#CCOC(=O)c1ccc2c(c1)B(O)OC2 [Compound 320]
≥ 80%: pest or weed control at 200 ppm (Plasmopara viticola) | inhibition at 200 ppm (Pythium ultimum) | inhibition at 200 ppm [1] | inhibition at 200 ppm [2] | inhibition at 200 ppm [3] | inhibition at 200 ppm (Gaeumannomyces graminis) | inhibition at 200 ppm [4] | inhibition at 200 ppm [5]

O=C(OCC1CC1)c1ccc2c(c1)B(O)OC2 [Compound 328]
≥ 80%: pest or weed control at 200 ppm (Plasmopara viticola) | inhibition at 200 ppm (Pythium ultimum) | inhibition at 200 ppm [1] | inhibition at 200 ppm [2] | inhibition at 200 ppm [3] | inhibition at 200 ppm (Gaeumannomyces graminis) | inhibition at 200 ppm [4] | inhibition at 200 ppm [5]

C=CCCOC(=O)c1ccc2c(c1)B(O)OC2 [Compound 329]
≥ 80%: pest or weed control at 200 ppm (Plasmopara viticola) | inhibition at 200 ppm (Pythium ultimum) | inhibition at 200 ppm [2] | inhibition at 200 ppm [3] | inhibition at 200 ppm (Gaeumannomyces graminis) | inhibition at 200 ppm [4] | inhibition at 200 ppm (Fusarium culmorum) | inhibition at 200 ppm [5]

O=C(OC1CCC1)c1ccc2c(c1)B(O)OC2 [Compound 332]
≥ 80%: pest or weed control at 200 ppm (Plasmopara viticola) | inhibition at 200 ppm (Pythium ultimum) | inhibition at 200 ppm [2] | inhibition at 200 ppm [3] | inhibition at 200 ppm [4] | inhibition at 200 ppm (Fusarium culmorum) | inhibition at 200 ppm [5]

C#CCCCOC(=O)c1ccc2c(c1)B(O)OC2 [Compound 334]
≥ 80%: pest or weed control at 200 ppm (Plasmopara viticola) | inhibition at 200 ppm (Pythium ultimum) | inhibition at 200 ppm [1] | inhibition at 200 ppm [2] | inhibition at 200 ppm [3] | inhibition at 200 ppm (Gaeumannomyces graminis) | inhibition at 200 ppm [4] | inhibition at 200 ppm (Fusarium culmorum) | inhibition at 200 ppm [5]

O=C(OCc1ccco1)c1ccc2c(c1)B(O)OC2 [Compound 336]
≥ 80%: pest or weed control at 200 ppm (Plasmopara viticola) | inhibition at 200 ppm (Pythium ultimum) | inhibition at 200 ppm [1] | inhibition at 200 ppm [2] | inhibition at 200 ppm [3] | inhibition at 200 ppm (Gaeumannomyces graminis) | inhibition at 200 ppm [4] | inhibition at 200 ppm (Fusarium culmorum) | inhibition at 200 ppm [5]

C=CCOC(=O)c1ccc2c(c1)B(O)OC2 [Compound 340]
≥ 80%: pest or weed control at 200 ppm (Plasmopara viticola) | inhibition at 200 ppm (Pythium ultimum) | inhibition at 200 ppm [1] | inhibition at 200 ppm [2] | inhibition at 200 ppm [3] | inhibition at 200 ppm (Gaeumannomyces graminis) | inhibition at 200 ppm [4] | inhibition at 200 ppm [5]

O=C(OCc1ccc(C(F)(F)F)nc1)c1ccc2c(c1)B(O)OC2 [Compound 343]
≥ 80%: pest or weed control at 200 ppm (Plasmopara viticola) | inhibition at 200 ppm (Pythium ultimum) | inhibition at 200 ppm [1] | inhibition at 200 ppm [2] | inhibition at 200 ppm [3] | inhibition at 200 ppm (Gaeumannomyces graminis) | inhibition at 200 ppm [4] | inhibition at 200 ppm [5]

O=C(OC1CSC1)c1ccc2c(c1)B(O)OC2 [Compound 362]
≥ 80%: inhibition at 200 ppm (Pythium ultimum) | inhibition at 200 ppm [2] | inhibition at 200 ppm [3] | inhibition at 200 ppm (Gaeumannomyces graminis) | inhibition at 200 ppm [4] | inhibition at 200 ppm (Fusarium culmorum) | inhibition at 200 ppm [5]

C#CCOC(=O)c1cc2c(cc1F)COB2O [Compound 381]
≥ 80%: pest or weed control at 200 ppm (Plasmopara viticola) | inhibition at 200 ppm (Pythium ultimum) | inhibition at 200 ppm [1] | inhibition at 200 ppm [3] | inhibition at 200 ppm (Gaeumannomyces graminis) | inhibition at 200 ppm [4] | inhibition at 200 ppm (Fusarium culmorum) | inhibition at 200 ppm [5]

O=C(OCC(Cl)(Cl)Cl)c1cc2c(cc1F)COB2O [Compound 382]
≥ 80%: pest or weed control at 200 ppm (Plasmopara viticola) | inhibition at 200 ppm (Pythium ultimum) | inhibition at 200 ppm [1] | inhibition at 200 ppm [2] | inhibition at 200 ppm [3] | inhibition at 200 ppm (Gaeumannomyces graminis) | inhibition at 200 ppm [4] | inhibition at 200 ppm [5]

O=C(OCC1CC1)c1cc2c(cc1F)COB2O [Compound 388]
≥ 80%: pest or weed control at 200 ppm (Plasmopara viticola) | inhibition at 200 ppm (Pythium ultimum) | inhibition at 200 ppm [1] | inhibition at 200 ppm [2] | inhibition at 200 ppm [3] | inhibition at 200 ppm (Gaeumannomyces graminis) | inhibition at 200 ppm [4] | inhibition at 200 ppm [5]

O=C(OCc1cccc2ccccc12)c1cc2c(cc1F)COB2O [Compound 394]
≥ 80%: pest or weed control at 200 ppm (Plasmopara viticola) | inhibition at 200 ppm (Pythium ultimum) | inhibition at 200 ppm [1] | inhibition at 200 ppm [2] | inhibition at 200 ppm [3] | inhibition at 200 ppm (Gaeumannomyces graminis) | inhibition at 200 ppm [4] | inhibition at 200 ppm [5]

C=CCOC(=O)c1cc2c(cc1F)COB2O [Compound 403]
≥ 80%: pest or weed control at 200 ppm (Plasmopara viticola) | inhibition at 200 ppm (Pythium ultimum) | inhibition at 200 ppm [1] | inhibition at 200 ppm [2] | inhibition at 200 ppm [3] | inhibition at 200 ppm (Gaeumannomyces graminis) | inhibition at 200 ppm [4] | inhibition at 200 ppm [5]

O=C(OCC1CCC1)c1cc2c(cc1F)COB2O [Compound 413]
≥ 80%: inhibition at 200 ppm (Pythium ultimum) | inhibition at 200 ppm [3] | inhibition at 200 ppm (Gaeumannomyces graminis) | inhibition at 200 ppm [4] | inhibition at 200 ppm (Fusarium culmorum) | inhibition at 200 ppm [5]

C[Si](C)(C)C#CCOC(=O)c1cc2c(cc1F)COB2O [Compound 430]
≥ 80%: pest or weed control at 200 ppm (Plasmopara viticola) | inhibition at 200 ppm (Pythium ultimum) | inhibition at 200 ppm [2] | inhibition at 200 ppm [3] | inhibition at 200 ppm (Gaeumannomyces graminis) | inhibition at 200 ppm (Fusarium culmorum) | inhibition at 200 ppm [5]

O=C(OCCc1c(Cl)cccc1Cl)c1cc2c(cc1F)COB2O [Compound 433]
≥ 80%: pest or weed control at 200 ppm (Plasmopara viticola) | inhibition at 200 ppm (Gaeumannomyces graminis) | inhibition at 200 ppm [4] | inhibition at 200 ppm (Fusarium culmorum) | inhibition at 200 ppm [5]

O=C(OCc1ccsc1)c1cc2c(cc1Cl)COB2O [Compound 439]
≥ 80%: pest or weed control at 200 ppm (Plasmopara viticola) | inhibition at 200 ppm (Pythium ultimum) | inhibition at 200 ppm [1] | inhibition at 200 ppm [2] | inhibition at 200 ppm [3] | inhibition at 200 ppm (Gaeumannomyces graminis) | inhibition at 200 ppm [4] | inhibition at 200 ppm [5]
